This assay deals with CFTR-mediated chloride transport (Homo sapiens, UniProt P13569). The assay is classed as cell-based. Particulars: enteroid cells incubated with test compound 18-24 hours, acute 10 μM forskolin and 300 nM Compound III; for Max. Activity: % of chloride transport with 3 μM Compound A, 3 μM Compound II and 300 nM acute Compound III triple combination control. Summed up:
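Membrane-potential fluorescence AUC over 15 min quantified CFTR chloride transport after acute forskolin (10 μM), IBMX (100 μM) and Compound III (300 nM) in chloride-free buffer. Human enteroid cells were pretreated with compound for 18–24 h; % Activity is relative to 3 μM Compound A + 3 μM Compound II + 300 nM Compound III.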

Chain of CFTR-mediated chloride transport (P13569 whole entry, looked up): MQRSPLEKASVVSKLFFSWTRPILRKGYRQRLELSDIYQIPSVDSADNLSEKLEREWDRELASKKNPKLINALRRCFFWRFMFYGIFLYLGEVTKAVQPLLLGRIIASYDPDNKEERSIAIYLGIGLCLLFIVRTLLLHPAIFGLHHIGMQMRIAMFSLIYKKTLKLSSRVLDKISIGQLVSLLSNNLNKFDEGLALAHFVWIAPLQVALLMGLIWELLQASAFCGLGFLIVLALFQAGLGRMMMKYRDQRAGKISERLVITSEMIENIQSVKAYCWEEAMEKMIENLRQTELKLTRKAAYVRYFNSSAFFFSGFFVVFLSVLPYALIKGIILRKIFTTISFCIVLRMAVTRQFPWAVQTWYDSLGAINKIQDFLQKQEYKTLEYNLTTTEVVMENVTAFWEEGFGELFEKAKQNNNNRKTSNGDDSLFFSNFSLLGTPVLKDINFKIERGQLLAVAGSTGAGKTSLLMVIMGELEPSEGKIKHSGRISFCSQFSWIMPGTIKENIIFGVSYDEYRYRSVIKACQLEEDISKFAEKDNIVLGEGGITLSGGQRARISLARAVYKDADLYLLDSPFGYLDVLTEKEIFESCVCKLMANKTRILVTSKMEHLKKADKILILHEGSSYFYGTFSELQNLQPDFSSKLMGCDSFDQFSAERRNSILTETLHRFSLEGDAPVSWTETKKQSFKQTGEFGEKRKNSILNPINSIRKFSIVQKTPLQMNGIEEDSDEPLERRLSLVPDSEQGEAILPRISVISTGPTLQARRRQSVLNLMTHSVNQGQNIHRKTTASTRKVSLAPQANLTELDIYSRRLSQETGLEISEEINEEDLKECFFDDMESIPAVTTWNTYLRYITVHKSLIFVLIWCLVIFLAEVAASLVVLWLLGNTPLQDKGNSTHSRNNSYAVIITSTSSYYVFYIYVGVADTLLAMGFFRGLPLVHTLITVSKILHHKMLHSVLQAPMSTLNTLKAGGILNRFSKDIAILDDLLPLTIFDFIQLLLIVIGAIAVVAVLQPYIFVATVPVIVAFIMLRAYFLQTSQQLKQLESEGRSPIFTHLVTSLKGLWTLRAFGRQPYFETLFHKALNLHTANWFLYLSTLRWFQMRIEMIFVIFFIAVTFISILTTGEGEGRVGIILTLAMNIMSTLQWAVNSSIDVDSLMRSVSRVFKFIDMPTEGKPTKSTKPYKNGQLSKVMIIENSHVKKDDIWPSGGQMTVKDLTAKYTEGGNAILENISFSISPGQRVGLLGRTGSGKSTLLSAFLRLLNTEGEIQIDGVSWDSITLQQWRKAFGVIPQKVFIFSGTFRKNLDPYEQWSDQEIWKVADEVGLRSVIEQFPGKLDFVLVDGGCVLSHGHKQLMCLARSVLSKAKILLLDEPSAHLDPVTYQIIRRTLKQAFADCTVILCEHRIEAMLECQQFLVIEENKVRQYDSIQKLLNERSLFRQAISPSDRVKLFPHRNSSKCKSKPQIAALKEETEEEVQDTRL

For orientation: EC50 means the concentration that produces a half-maximal response. Consider `CC1(C)C[C@H]2CCCn3ccc(n3)S(=O)(=O)NC(=O)c3ccc(-n4ccc(OCCC(C5CC5)C5CC5)n4)nc3N1C2` (single isomer, unassigned) [Compound 154, 4-[3-(3,3-dicyclopropylpropoxy)-1H-pyrazol-1-yl]-20,20-dimethyl-10λ^6-thia-1,3,9,14,22-pentaazatetracyclo[16.2.1.111,14.02,7]docosa-2,4,6,11(22),12-pentaene-8,10,10-trione], for which the EC50 was less than 1 µM and the “Max. Activity” value is reported as “+++ (+++ is >60%)”.
On to `CC1(C)C[C@@H]2CN1c1nc(-n3ccc(OCCCC4(C(F)(F)F)CC4)n3)ccc1C(=O)NS(=O)(=O)c1cccc(n1)NCCO2` (single isomer, unassigned) [Compound 159, 12,12-dimethyl-8-(3-{3-[1-(trifluoromethyl)cyclopropyl]propoxy}-1H-pyrazol-1-yl)-15-oxa-2λ^6-thia-3,9,11,18,23-pentaazatetracyclo[17.3.1.111,14.05,10]tetracosa-1(23),5,7,9,19,21-hexaene-2,2,4-trione], for which the EC50 was more than 3 µM and the “Max. Activity” value is given as “+ (+ is <30%)”.
On the same counts, the results for `CC1(C)C[C@@H]2CN1c1nc(-n3ccc(OCCCC4(C(F)(F)F)CC4)n3)ccc1C(=O)NS(=O)(=O)c1cccc(n1)NCCO2` (single isomer, unassigned) [Compound 160, 12,12-dimethyl-8-(3-{3-[1-(trifluoromethyl)cyclopropyl]propoxy}-1H-pyrazol-1-yl)-15-oxa-2λ^6-thia-3,9,11,18,23-pentaazatetracyclo[17.3.1.111,14.05,10]tetracosa-1(23),5,7,9,19,21-hexaene-2,2,4-trione] are less than 1 µM and “+++ (+++ is >60%)”.
Consider `CC1(C)C[C@@H]2CN1c1nc(-n3ccc(OCCC(C4CC4)C4CC4)n3)ccc1C(=O)NS(=O)(=O)c1cccc(n1)NCCO2` (single isomer, unassigned) [Compound 162, 8-[3-(3,3-dicyclopropylpropoxy)-1H-pyrazol-1-yl]-12,12-dimethyl-15-oxa-2λ^6-thia-3,9,11,18,23-pentaazatetracyclo[17.3.1.111,14.05,10]tetracosa-1(23),5,7,9,19,21-hexaene-2,2,4-trione], for which the EC50 fell in the range of 1 to 3 µM and the “Max. Activity” value was “++ (++ is 30-60%)”.
With `CC1(C)C[C@@H]2CN1c1nc(-n3ccc(OCCC(C4CC4)C4CC4)n3)ccc1C(=O)NS(=O)(=O)c1cccc(n1)NCCO2` (single isomer, unassigned) [Compound 163, 8-[3-(3,3-dicyclopropylpropoxy)-1H-pyrazol-1-yl]-12,12-dimethyl-15-oxa-2λ^6-thia-3,9,11,18,23-pentaazatetracyclo[17.3.1.111,14.05,10]tetracosa-1(23),5,7,9,19,21-hexaene-2,2,4-trione], the EC50 is less than 1 µM and the “Max. Activity” value was “++ (++ is 30-60%)”.
In the case of `CC1(C)C[C@H]2CCCn3ccc(n3)S(=O)(=O)NC(=O)c3ccc(-n4ccc(OCCCC5(C(F)(F)F)CC5)n4)nc3N1C2` (single isomer, unassigned) [Compound 165, 20,20-dimethyl-4-(3-{3-[1-(trifluoromethyl)cyclopropyl]propoxy}-1H-pyrazol-1-yl)-10λ^6-thia-1,3,9,14,22-pentaazatetracyclo[16.2.1.111,14.02,7]docosa-2(7),3,5,11(22),12-pentaene-8,10,10-trione], the EC50 is more than 3 µM and the “Max. Activity” value was “+ (+ is <30%)”.
Regarding `CC1(C)C[C@H]2CCCn3ccc(n3)S(=O)(=O)NC(=O)c3ccc(-n4ccc(OCCCC5(C(F)(F)F)CC5)n4)nc3N1C2` (single isomer, unassigned) [Compound 166, 20,20-dimethyl-4-(3-{3-[1-(trifluoromethyl)cyclopropyl]propoxy}-1H-pyrazol-1-yl)-10λ^6-thia-1,3,9,14,22-pentaazatetracyclo[16.2.1.111,14.02,7]docosa-2(7),3,5,11(22),12-pentaene-8,10,10-trione], the EC50 is less than 1 µM and the “Max. Activity” value is given as “+++ (+++ is >60%)”.
On the same counts, the results for `CC1(C)C[C@@H]2CN1c1nc(-n3ccc(OCCC4(C(F)(F)F)CC4)n3)ccc1C(=O)NS(=O)(=O)c1ccn(n1)CCO2` (single isomer, unassigned) [Compound 167, 20,20-dimethyl-4-(3-{2-[1-(trifluoromethyl)cyclopropyl]ethoxy}-1H-pyrazol-1-yl)-17-oxa-10λ^6-thia-1,3,9,14,22-pentaazatetracyclo[16.2.1.111,14.02,7]docosa-2(7),3,5,11(22),12-pentaene-8,10,10-trione] are less than 1 µM and “++ (++ is 30-60%)”.
`CC(C)(C)CCO[C@H]1CCN(c2ccc3c(n2)N2C[C@@H](CCCNc4cccc(n4)S(=O)(=O)NC3=O)CC2(C)C)C1=O` (single isomer, unassigned) [Compound 170]: the EC50 was less than 1 µM and the “Max. Activity” value is “++ (++ is 30-60%)”.
Consider `CC(C)(C)CCO[C@H]1CCN(c2ccc3c(n2)N2C[C@@H](CCCNc4cccc(n4)S(=O)(=O)NC3=O)CC2(C)C)C1=O` (single isomer, unassigned) [Compound 171], for which the EC50 is less than 1 µM and the “Max. Activity” value is recorded as “+++ (+++ is >60%)”.
As for `CC1(C)C[C@@H]2CCCNc3cccc(n3)S(=O)(=O)NC(=O)c3ccc(N4CC[C@H](OCCC5(C(F)(F)F)CC5)C4=O)nc3N1C2` (single isomer, unassigned) [Compound 172], the EC50 is less than 1 µM and the “Max. Activity” value is recorded as “++ (++ is 30-60%)”.
As for `CC1(C)C[C@@H]2CCCNc3cccc(n3)S(=O)(=O)NC(=O)c3ccc(N4CC[C@H](OCCC5(C(F)(F)F)CC5)C4=O)nc3N1C2` (single isomer, unassigned) [Compound 173], the EC50 is less than 1 µM and the “Max. Activity” value was “+++ (+++ is >60%)”.
With `CC1(C)C[C@@H]2CCCNc3cccc(n3)S(=O)(=O)NC(=O)c3ccc(N4CC[C@H](CCCC5(C(F)(F)F)CC5)C4=O)nc3N1C2` (single isomer, unassigned) [Compound 174], the EC50 was less than 1 µM and the “Max. Activity” value is listed as “+++ (+++ is >60%)”.
On to `CC1(C)C[C@@H]2CCCNc3cccc(n3)S(=O)(=O)NC(=O)c3ccc(N4CC[C@H](CCCC5(C(F)(F)F)CC5)C4=O)nc3N1C2` (single isomer, unassigned) [Compound 175], for which the EC50 was less than 1 µM and the “Max. Activity” value is given as “+++ (+++ is >60%)”.
As for `CC1(C)C[C@@H]2CCCNc3cccc(n3)S(=O)(=O)NC(=O)c3ccc(N4CC[C@H](CCC5C6(CC6)C56CC6)C4=O)nc3N1C2` (single isomer, unassigned) [Compound 177], the EC50 was less than 1 µM and the “Max. Activity” value is “++ (++ is 30-60%)”.
`CC1(C)C[C@@H]2CCCNc3cccc(n3)S(=O)(=O)NC(=O)c3ccc(N4CC[C@H](CCC5C6(CC6)C56CC6)C4=O)nc3N1C2` (single isomer, unassigned) [Compound 178]: the EC50 was less than 1 µM and the “Max. Activity” value is given as “+++ (+++ is >60%)”.
As for `CC1(C)C[C@@H]2CCCNc3cccc(n3)S(=O)(=O)NC(=O)c3ccc(N4CC[C@H](OCCC5C6(CC6)C56CC6)C4=O)nc3N1C2` (single isomer, unassigned) [Compound 179], the EC50 was less than 1 µM and the “Max. Activity” value is given as “++ (++ is 30-60%)”.
On to `CC1(C)C[C@@H]2CCCNc3cccc(n3)S(=O)(=O)NC(=O)c3ccc(N4CC[C@H](OCCC5C6(CC6)C56CC6)C4=O)nc3N1C2` (single isomer, unassigned) [Compound 180], for which the EC50 is less than 1 µM and the “Max. Activity” value is reported as “+++ (+++ is >60%)”.
For `CC1(C)C[C@H]2CCCn3ccc(n3)S(=O)(=O)NC(=O)c3ccc(N4CC[C@H](CCCC5(C(F)(F)F)CC5)C4=O)nc3N1C2` (single isomer, unassigned) [Compound 181, 20,20-Dimethyl-4-(2-oxo-3-{3-[1-(trifluoromethyl)cyclopropyl]propyl}pyrrolidin-1-yl)-10λ^6-thia-1,3,9,14,22-pentaazatetracyclo[16.2.1.111,14.02,7]docosa-2,4,6,11(22),12-pentaene-8,10,10-trione] the same measures were 1 to 3 µM and “++ (++ is 30-60%)”.
`CC1(C)C[C@H]2CCCn3ccc(n3)S(=O)(=O)NC(=O)c3ccc(N4CC[C@H](CCCC5(C(F)(F)F)CC5)C4=O)nc3N1C2` (single isomer, unassigned) [Compound 182, 20,20-dimethyl-4-(2-oxo-3-{3-[1-(trifluoromethyl)cyclopropyl]propyl}pyrrolidin-1-yl)-10λ^6-thia-1,3,9,14,22-pentaazatetracyclo[16.2.1.111,14.02,7]docosa-2,4,6,11(22),12-pentaene-8,10,10-trione]: the EC50 is less than 1 µM and the “Max. Activity” value is listed as “++ (++ is 30-60%)”.
Regarding `CC1(C)C[C@H]2CCCn3ccc(n3)S(=O)(=O)NC(=O)c3ccc(N4CC[C@H](OCCC5(C(F)(F)F)CC5)C4=O)nc3N1C2` (single isomer, unassigned) [Compound 191, 20,20-Dimethyl-4-(2-oxo-3-{2-[1-(trifluoromethyl)cyclopropyl]ethoxy}pyrrolidin-1-yl)-10λ^6-thia-1,3,9,14,22-pentaazatetracyclo[16.2.1.111,14.02,7]docosa-2,4,6,11(22),12-pentaene-8,10,10-trione], the EC50 is less than 1 µM and the “Max. Activity” value was “++ (++ is 30-60%)”.
In the case of `CC1(C)C[C@H]2CCCn3ccc(n3)S(=O)(=O)NC(=O)c3ccc(N4CC[C@H](OCCC5(C(F)(F)F)CC5)C4=O)nc3N1C2` (single isomer, unassigned) [Compound 192, 20,20-dimethyl-4-(2-oxo-3-{2-[1-(trifluoromethyl)cyclopropyl]ethoxy}pyrrolidin-1-yl)-10λ^6-thia-1,3,9,14,22-pentaazatetracyclo[16.2.1.111,14.02,7]docosa-2,4,6,11(22),12-pentaene-8,10,10-trione], the EC50 was less than 1 µM and the “Max. Activity” value is given as “+++ (+++ is >60%)”.

(Values after patent US11866450B2, “Modulators of Cystic Fibrosis Transmembrane Conductance regulator, pharmaceutical compositions, methods of treatment, and process for making the modulators” (priority 2018, dated 2024).)
